Assay results from PubChem BioAssay AID1418 (Emory University Molecular Libraries Screening Center, 2008).
The source made the active and inactive calls. How the calls were made is not given here.

What follows are compounds tested against Induced myeloid leukemia cell differentiation protein Mcl-1 (Homo sapiens) (UniProt Q07820) (assay: blockers of Bid binding to Mcl-1 – biochemical, TR-FRET, dose response (AID 1418)). Settings: Mcl-1/Bid peptide binding, TR-FRET (europium/Dy647), 2 hr.
Chain of Induced myeloid leukemia cell differentiation protein Mcl-1 (Homo sapiens) (Q07820 whole entry, looked up): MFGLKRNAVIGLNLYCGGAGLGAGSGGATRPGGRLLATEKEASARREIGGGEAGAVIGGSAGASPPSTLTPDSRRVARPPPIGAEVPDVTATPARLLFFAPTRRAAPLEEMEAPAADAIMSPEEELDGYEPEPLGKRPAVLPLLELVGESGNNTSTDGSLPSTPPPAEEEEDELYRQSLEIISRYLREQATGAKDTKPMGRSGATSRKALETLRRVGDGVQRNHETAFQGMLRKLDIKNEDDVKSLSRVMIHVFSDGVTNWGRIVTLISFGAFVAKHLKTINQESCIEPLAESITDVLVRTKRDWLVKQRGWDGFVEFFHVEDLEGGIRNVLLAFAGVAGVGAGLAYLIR
With `CCn1c(SCC(=O)NCc2ccco2)nnc1-c1ccc(N)cc1` the IC50 was > 54 µM (inactive). In the case of `COc1cc(OC)cc(C(=O)N2CCN(Cc3ccccc3C(F)(F)F)CC2)c1`, the IC50 is reported as “inactive”. Compound `Cn1c2ccccc2c(=O)c2c(=O)n(C3CCCCCC3)c(C3CCCCC3)nc21` has an IC50 of 2.27 µM. In the case of `COc1cccc2c(=O)c(C/C=C(/C)Cl)c(C)[nH]c12`, the IC50 is reported as > 54 µM (inactive). In the case of `COc1cccc(-c2csc(N3CCN(C(=S)Nc4cccc(Cl)c4)CC3)n2)c1`, the IC50 is reported as > 54 µM (inactive). `C#CCOCCOCCOCCNc1nc(N2CCN(C(=O)[C@H](CCC(=O)O)n3cc(C(N)CC(C)C)nn3)CC2)nc(N2CCN(C(=O)[C@H](CCC(=O)O)n3cc(C(N)CC(C)C)nn3)CC2)n1` (stereo not given in full) was tested, and the IC50 was 15.2 µM. Work on `CC(C)N1C(=O)/C(=C/c2nc3ccccc3c(=O)n2-c2ccccc2)c2ccccc21` yielded an IC50 of 0.99 µM. `Cc1cc(C)c2c(c1)C1C=CCC1C(c1ccc(S(=O)(=O)N3CCOCC3)cc1)N2` (stereo not given) was tested, and the IC50 was > 54 µM (inactive). For `COC(=O)c1ccc2c(=O)n(CCCCCC(=O)NCc3ccc4c(c3)OCO4)c(=O)[nH]c2c1`, the IC50 was “inactive”. Work on `CC1(c2ccccc2)CC(C)(C)N2C(=O)/C(=C3\SC(=S)NC3=O)c3cccc1c32` (stereo not given) yielded an IC50 of 2.16 µM. With `NC(=O)COc1c(-c2ccccc2)oc2ccccc2c1=O` the IC50 was > 54 µM (inactive). For `Cc1ccc2nc(SC(C)C(=O)NC3CCCc4ccccc43)[nH]c2c1` (stereo not given), the IC50 was > 54 µM (inactive). For `CCN1C(=O)c2cccc3c(S(=O)(=O)Nc4ccccc4OC)ccc1c23`, the IC50 was > 54 µM (inactive). For `O=C(NCc1cccnc1)c1cc2nc(-c3ccc4c(c3)OCO4)cc(C(F)(F)F)n2n1`, the IC50 was > 54 µM (inactive). `CCOC(=O)c1cc(C#N)c(SCC(=O)OC)[nH]c1=O` was tested, and the IC50 was > 54 µM (inactive). With `Cc1ccc(S(=O)(=O)N/N=C/c2cnn(C)c2C)cc1` the IC50 was > 54 µM (inactive). With `O=C(/C=C\Nc1ccc(S(=O)(=O)Nc2ncccn2)cc1)c1cccc2ccccc12` the IC50 was > 54 µM (inactive). `Nc1ccccc1Nc1ccccc1` was tested, and the IC50 was > 54 µM (inactive). `Cc1ccc(OCc2ccc(C(=O)Nc3nc4ccccc4n3Cc3ccccc3)o2)c([N+](=O)[O-])c1` was tested, and the IC50 was > 54 µM (inactive). With `CCOC(=O)c1c(NC(=O)CN(C)C)sc(C(=O)N(CC)CC)c1C` the IC50 was > 54 µM (inactive). With `COC(=O)C1=CN(CC2CCCO2)C=C(C(=O)OC)C1c1ccsc1` (stereo not given) the IC50 was > 54 µM (inactive). `CCCCN(Cc1cc2cc(OC)ccc2[nH]c1=O)C(=O)c1ccccn1` was tested, and the IC50 was > 54 µM (inactive). `O=C(NC(=S)NCc1cccnc1)c1ccc([N+](=O)[O-])cc1` was tested, and the IC50 was > 54 µM (inactive). `Cc1ccc2nc(NC(=O)c3ccc(-c4nc5ccccc5s4)s3)sc2c1` gave an IC50 of 1.12 µM. For `CCOC(=O)c1ccc(NS(=O)(=O)N2CCCCCC2)cc1`, the IC50 was > 54 µM (inactive). In the case of `COc1ccccc1NC(=O)COc1cc(Br)c(CNCCCN2CCOCC2)cc1OC`, the IC50 is reported as > 54 µM (inactive). With `CCOC(=O)N1CCN(C(=O)CSc2ccc3nnc(CCNC(=O)c4ccc(OC)cc4)n3n2)CC1` the IC50 was > 54 µM (inactive). `O=C(O)CCC(=O)NCCC1=c2ccccc2=N/C1=C\c1c(O)n(Cc2ccc(F)cc2)c(=S)[nH]c1=O` gave an IC50 of 2.51 µM. `Cc1ccc(N2C(=O)CC(Cn3nc(C)cc3C)C2=O)cc1` (stereo not given) was tested, and the IC50 was > 54 µM (inactive). With `Cc1cc(O)ccc1N/C=C(\C#N)c1nc2ccccc2o1` the IC50 was > 54 µM (inactive). `O=C(Nc1ccc(Cl)cc1)N1CCc2[nH]c3ccccc3c2C1` was tested, and the IC50 was > 54 µM (inactive). `CC1CCc2c(sc3ncn(CC(=O)N=Nc4c(O)[nH]c5ccccc45)c(=O)c23)C1` (stereo not given) gave an IC50 of 1.47 µM. Work on `C=CS(=O)(=O)c1sc(Cl)c(N2CCOCC2)c1[N+](=O)[O-]` yielded an IC50 of 1.77 µM. For `Cc1ccc([N+](=O)[O-])cc1N=Nc1c(-c2ccc([N+](=O)[O-])cc2)[nH]n(C(N)=S)c1=O`, the IC50 was 2.22 µM. `Cc1ccc(C2C3=C(Nc4[nH]n(-c5ccccc5)c(=O)c42)c2ccccc2C3=O)cc1` (stereo not given) was tested, and the IC50 was 0.74 µM. For `Cc1ccc(-c2nnc(SCC(=O)N/N=C/c3ccc(C)s3)n2-c2ccc(C)cc2)cc1`, the IC50 was > 54 µM (inactive). With `Cc1cc(-c2ccco2)n2c(nc3ccccc32)c1C#N` the IC50 was > 54 µM (inactive). For `NS(=O)(=O)c1cc2c(cc1Cl)NC(Cc1ccccc1)NS2(=O)=O` (stereo not given), the IC50 was > 54 µM (inactive). `Cc1ccc(S(=O)(=O)N2CCOCC2)cc1C(=O)N1C(=O)c2cccc(N)c2C1=O` was tested, and the IC50 was > 54 µM (inactive). `CCOc1cccc(CNCCO)c1OCc1ccc(Cl)cc1Cl` was tested, and the IC50 was > 54 µM (inactive). For `COc1ccc(C(=O)Nc2nc3cc(OC)c(OC)cc3c(=O)[nH]2)cc1`, the IC50 was > 54 µM (inactive). For `COc1ccc(C2Nc3ccccc3C(=O)N2O)cc1OC` (stereo not given), the IC50 was > 54 µM (inactive). With `CCN(CC)C(=O)CN(C)S(=O)(=O)c1cccc2nsnc12` the IC50 was > 54 µM (inactive). With `CC1=NOC(=O)/C1=C\c1ccc(-c2ccc(Cl)cc2Cl)o1` the IC50 was 1.94 µM. `NC(=O)c1cnn2c(-c3cccc(C(F)(F)F)c3)ccnc12` was tested, and the IC50 was > 54 µM (inactive). With `COC(=O)c1cccc(OCC(O)Cn2ccnc2)c1` (stereo not given) the IC50 was > 54 µM (inactive). With `CCOC(=O)Cc1csc(NC(=O)CSc2nnnn2-c2ccc(C)c(C)c2)n1` the IC50 was > 54 µM (inactive). With `COC(=O)/C=C1/SC(=Nc2ccc(C)cc2C)NC1=O` the IC50 was > 54 µM (inactive). In the case of `Cc1ccsc1C(=O)OCC(=O)N1CCOCC1`, the IC50 is reported as > 54 µM (inactive). In the case of `O=S(=O)(c1cccc(-c2nnc(SC(F)F)n2-c2ccccc2)c1)N1CCCCC1`, the IC50 is reported as > 54 µM (inactive). In the case of `COC(=O)c1c(C)[nH]c(C)c1C(C)=O`, the IC50 is reported as 0.54 µM. Compound `CN(C)c1ccc(/C=c2\sc3nc(-c4ccccc4)nn3c2=O)cc1` has an IC50 of 5.15 µM. Work on `O=C(CCN1C(=O)/C(=C/c2cccc(Br)c2)SC1=S)NNC(=O)c1cccnc1` yielded an IC50 of 4.52 µM. `COc1ccc(OC)c(-n2c(N)c(C(=O)NCC3CCCO3)c3nc4ccccc4nc32)c1` (stereo not given) was tested, and the IC50 was > 54 µM (inactive). For `O=C(c1ccco1)N1C(=O)c2cccc3c(S(=O)(=O)N4CCCC4)ccc1c23`, the IC50 was > 54 µM (inactive). For `Nc1c(C(=O)NC2CC2)sc2nc3c(c(-c4ccco4)c12)CC/C3=C/c1ccco1`, the IC50 was > 54 µM (inactive). `Cc1ccc(N=Nc2c(N)[nH]n3c(=O)cc(-c4ccccc4)nc23)cc1` was tested, and the IC50 was “inactive”. `COCCn1cc(C(=O)N2CCC(C)CC2)c2c3ccccc3n(C)c2c1=O` was tested, and the IC50 was “inactive”. In the case of `CCCCSc1cc(C)nc(N)n1`, the IC50 is reported as > 54 µM (inactive). In the case of `COc1ccc(CCNC(=O)c2ccc(CNS(=O)(=O)c3ccc(C(C)(C)C)cc3)cc2)cc1OC`, the IC50 is reported as > 54 µM (inactive). In the case of `O=C1Nc2ccc(Br)cc2/C1=C/C(=O)c1ccc2c(c1)OCO2`, the IC50 is reported as 1.93 µM. For `O=C(NCc1nnc(SCC(=O)N2CCOCC2)o1)c1c(F)cccc1Cl`, the IC50 was > 54 µM (inactive). `COC(=O)c1ccc(CNC(=O)c2c3c(nc4ccccc24)CCN(Cc2ccccc2)C3)cc1` was tested, and the IC50 was > 54 µM (inactive). `O=C(Nc1cccc(Cl)c1)c1cc(N=Nc2ccc([N+](=O)[O-])cc2Cl)ccc1O` showed an IC50 of 4.18 µM. In the case of `CN1CCN(C(=S)c2cn(Cc3ccccc3F)c3ccccc23)CC1`, the IC50 is reported as > 54 µM (inactive). Work on `O=c1c2ccccc2nc(CSc2nnnn2-c2ccccc2)n1-c1ccccc1` yielded an IC50 of 18.7 µM. `CCOC(=O)c1c(C)oc2c1c(C(c1cccnc1)N1CCOCC1)c(O)c1ccccc12` (stereo not given) showed an IC50 of 0.85 µM. `O=C(Nc1ccc2oc(=O)ccc2c1)c1ccc(-c2cccc([N+](=O)[O-])c2)o1` showed an IC50 of 0.65 µM. `Cc1nc(NC(=O)c2ccco2)sc1-c1csc(Nc2ccc(Cl)cc2Cl)n1` showed an IC50 of 0.77 µM. With `Clc1ccc(OCCN2CCCCC2)c(Cl)c1` the IC50 was > 54 µM (inactive).
